Source: ChEMBL document CHEMBL3639183, “Anellated pyridine compounds” (2013)

Experiments:
Type in all cases: cell-based
D(2) dopamine receptor = D(2) dopamine receptor (Homo sapiens, UniProt P14416); assay: (§1) Radioligand Binding Assay: The ability of the compounds to bind to the 5-HT2A, D3 and D2 receptors was determined using radioligand binding to cloned receptors selectively expressed in HEK-293 EBNA cells.
[1] = target: 5-hydroxytryptamine receptor 2A (Homo sapiens, UniProt P28223); assay: as §1
5-hydroxytryptamine receptor 2A, sequence (P28223 whole entry): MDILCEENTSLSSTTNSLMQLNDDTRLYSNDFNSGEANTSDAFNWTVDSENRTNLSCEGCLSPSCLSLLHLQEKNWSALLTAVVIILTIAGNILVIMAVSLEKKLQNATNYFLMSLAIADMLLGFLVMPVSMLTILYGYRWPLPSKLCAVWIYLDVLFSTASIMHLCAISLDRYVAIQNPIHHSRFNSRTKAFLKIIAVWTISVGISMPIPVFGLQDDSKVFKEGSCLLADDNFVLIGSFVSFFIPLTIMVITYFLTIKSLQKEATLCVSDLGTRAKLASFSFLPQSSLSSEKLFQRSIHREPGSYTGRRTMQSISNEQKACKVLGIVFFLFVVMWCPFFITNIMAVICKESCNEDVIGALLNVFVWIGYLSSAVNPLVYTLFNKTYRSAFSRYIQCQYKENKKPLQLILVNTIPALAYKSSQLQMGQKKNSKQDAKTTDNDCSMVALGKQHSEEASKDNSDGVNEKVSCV

D(3) dopamine receptor = D(3) dopamine receptor (Homo sapiens, UniProt P35462); assay: as §1
D(3) dopamine receptor, sequence (P35462 whole entry): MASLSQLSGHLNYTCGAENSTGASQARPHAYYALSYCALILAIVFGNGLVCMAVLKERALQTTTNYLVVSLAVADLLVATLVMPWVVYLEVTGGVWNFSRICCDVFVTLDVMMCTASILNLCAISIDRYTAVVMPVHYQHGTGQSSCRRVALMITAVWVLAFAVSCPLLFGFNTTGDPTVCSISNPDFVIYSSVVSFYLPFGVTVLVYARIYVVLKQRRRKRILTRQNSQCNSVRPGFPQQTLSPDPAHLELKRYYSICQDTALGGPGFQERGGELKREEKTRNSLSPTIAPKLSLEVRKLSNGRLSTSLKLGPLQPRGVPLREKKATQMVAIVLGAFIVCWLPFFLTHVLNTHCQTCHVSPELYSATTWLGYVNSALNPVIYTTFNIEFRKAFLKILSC

D(2) dopamine receptor, sequence (P14416 whole entry): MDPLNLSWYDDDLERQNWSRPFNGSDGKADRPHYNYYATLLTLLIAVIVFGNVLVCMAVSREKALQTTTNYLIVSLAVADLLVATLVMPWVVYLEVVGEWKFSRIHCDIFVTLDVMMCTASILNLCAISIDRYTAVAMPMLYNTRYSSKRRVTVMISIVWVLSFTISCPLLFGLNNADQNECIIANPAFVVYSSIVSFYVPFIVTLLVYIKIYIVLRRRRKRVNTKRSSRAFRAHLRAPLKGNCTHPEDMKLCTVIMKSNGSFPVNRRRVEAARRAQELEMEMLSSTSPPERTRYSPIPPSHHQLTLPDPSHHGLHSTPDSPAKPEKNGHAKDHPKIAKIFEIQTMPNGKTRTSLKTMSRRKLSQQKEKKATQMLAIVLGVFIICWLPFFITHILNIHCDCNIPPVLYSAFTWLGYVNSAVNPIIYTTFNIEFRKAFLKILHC

CC(C)(O)C(=O)N[C@H]1CC[C@H](CCN2CCN(c3nccc4c3CCO4)CC2)CC1
Ki (D(2) dopamine receptor): 1260 nM | Ki [1]: 7.82 nM | Ki (D(3) dopamine receptor): 195 nM
